Patent US5294724A, “4-hydroxytetrahydropyran-2-ones and the corresponding dihydroxycarboxylic acid derivatives, salts and esters and a process for their preparation” (priority 1989, dated 1994)

Key:
HEP G2 cells = experiment: Inhibition of cholesterol biosynthesis in cell cultures (HEP G2 cells), incorporation of 14C-sodium acetate in cholesterol; type: cell-based; settings: for IC50 / IC70: Homo sapiens, HepG2, sodium salts, test compounds corrected by deviation of mevinolin sodium from its mean value; for IC50: read-out: IC50 (concentration necessary for a 50% inhibition); for IC70: read-out: IC70 (concentration necessary for a 70% inhibition); for Relative potency in % / Relative potency in % (value in parentheses): mevinolin sodium = 100; for Relative potency in %: from IC50; for Relative potency in % (value in parentheses): corresponds to IC70
Description: 2) Inhibition of cholesterol biosynthesis in cell cultures (EEP G2 cells)
Determination of the inhibition of the incorporation of ^14 C-sodium acetate in cholesterol
Monolayers of HEP G2 cells in lipoprotein-free medium were preincubated with various concentrations of the sodium salts of the dihydroxycarboxylic acids of the formula II for 1 hour. After adding ^14 C-labeled sodium acetate, the incubation was continued for 3 hours. Tritium-labeled cholesterol was added as an internal standard and an aliquot of the cells was subjected to alkaline hydrolysis. The lipids were extracted using chloroform/methanol 2: 1. After adding carrier cholesterol, the lipid mixture was preparatively separated on TLC plates using chloroform/acetone 9: 1. The cholesterol zone was made visible by staining with iodine vapor, additionally detected using a TLC radio scanner and then scraped off. The amount of ^14 C-cholesterol formed was determined scintigraphically and related to mg of cell protein. The same procedure was carried out with cells from the Bame culture without preincubation with a test compound (so-called "solvent control"). The potency of the test compounds was determined by comparison of the biosynthesized ^14 C-cholesterol in test runs and in "solvent control".

serum total cholesterol = experiment: Hypocholesterolemic activity in rabbits after p.o. administration; type: in vivo, male white New Zealand rabbits; settings: for Serum total cholesterol, % change compared to control group: rabbit p.o., 5 mg/kg per day (constant)
Description: 4) Hypocholesterolemic activity in rabbits after p.o. administration
Normolipemic male white New Zealand rabbits, body weight 3-3.5 kg, were divided into groups of 5 animals. The groups in each case received one of the test compounds (sodium salts of the compounds of the formula II), suspended in 1% aqueous methylcellulose (®Tylose MH 300), 5.10 or 20 mg/kg/day daily in the morning by stomach tube. The animals of the control groups received only Tylose MH 300. Every 3-4 days samples of venous blood were taken from all animals 20 hours after the oral administration. The serum total cholesterol was determined enzymatically in these samples using the test combination of Boehringer Mannheim (CHOD-PAP high performance method). The serum cholesterol level of the treated animals was compared with that of the control groups. A "discharge phase" followed the 20-day "treatment phase", in which the change in the serum cholesterol level was further monitored.

HMG-CoA reductase = molecular target: T1, HMG-CoA reductase (Rattus norvegicus, UniProt P51639); experiment: Inhibition of HMG-CoA reductase activity in solubilized enzyme preparations from rat liver microsomes; type: biochemical; settings: sodium salts of the dihydroxycarboxylic acids; mean of 3 parallel samples; read-out: IC50 (molar concentration necessary for a 50% inhibition)
T1 construct: solubilized enzyme preparations from liver microsomes of rats; from tissue; host or cells: rat liver microsomes (cholestyramine-induced rats), solubilized
T1 sequence (P51639 1-887): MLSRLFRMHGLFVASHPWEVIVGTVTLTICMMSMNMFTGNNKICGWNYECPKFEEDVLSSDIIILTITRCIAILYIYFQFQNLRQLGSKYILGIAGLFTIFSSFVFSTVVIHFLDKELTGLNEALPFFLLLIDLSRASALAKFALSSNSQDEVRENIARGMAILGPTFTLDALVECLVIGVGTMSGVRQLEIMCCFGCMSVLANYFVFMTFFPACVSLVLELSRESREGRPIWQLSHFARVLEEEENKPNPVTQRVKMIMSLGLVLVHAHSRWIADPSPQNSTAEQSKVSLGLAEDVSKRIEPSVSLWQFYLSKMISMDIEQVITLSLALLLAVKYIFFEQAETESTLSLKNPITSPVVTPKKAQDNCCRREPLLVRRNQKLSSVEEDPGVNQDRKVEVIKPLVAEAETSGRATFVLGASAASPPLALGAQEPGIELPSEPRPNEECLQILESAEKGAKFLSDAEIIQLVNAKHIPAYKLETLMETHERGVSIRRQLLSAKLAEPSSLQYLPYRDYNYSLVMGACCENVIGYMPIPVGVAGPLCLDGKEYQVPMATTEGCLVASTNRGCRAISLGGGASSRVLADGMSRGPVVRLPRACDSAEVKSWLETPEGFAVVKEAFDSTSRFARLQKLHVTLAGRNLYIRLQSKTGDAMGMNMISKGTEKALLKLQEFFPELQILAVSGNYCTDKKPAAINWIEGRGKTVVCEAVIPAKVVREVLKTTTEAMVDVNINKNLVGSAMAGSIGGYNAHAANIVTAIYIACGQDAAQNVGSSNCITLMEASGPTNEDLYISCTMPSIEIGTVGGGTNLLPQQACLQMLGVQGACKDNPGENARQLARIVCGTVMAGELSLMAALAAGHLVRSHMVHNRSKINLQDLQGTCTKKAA
Description: 1) Inhibition of HKG-CoA reductase activity in solubilized enzyme preparations from rat liver microsomes
HMG-CoA reductase activity was measured on solubilized enzyme preparations from liver microsomes of rats which had been induced by conversion into the day/night rhythm using cholestyramine (®Cuemid). (S,R)^14 C-HMG-CoA was used as a substrate, and the concentration of NADPH was maintained during the incubation by a regenerating system. The separation of ^14 C-mevalonate from substrate and other products (for example ^14 C-HMG) was carried out by column elution, the elution profile of each individual sample being determined. The regular addition of ^3 H-mevalonate was avoided as the determination gives the data relative to the inhibitory action. The enzyme-free control, the enzyme-containing normal mixture (=100%) and those containing preparation additives were in each case treated together in one series of experiments. The sodium salts of the dihydroxycarboxylic acids of the formula II were always employed as the preparation in this test. Each individual value was formed as the mean value of 3 parallel samples. The significance of the mean value differences between preparation-free and preparation-containing samples was evaluated by the t-test.

[1] = system: microsomal lipid peroxidation; experiment: Inhibition of microsomal lipid peroxidation (in vitro); type: biochemical; settings: for IC50: microsomes, read-out: IC50 (50% inhibition of lipid peroxidation)
Description: 5) Inhibition of microsomal lipid peroxidation (in vitro)
The inhibition of lipid peroxidation was measured under the experimental conditions described by H. Wafers and H. Sies, Eur. J. Biochem. 174, 353-357 (1988). The microsomes were obtained according to the literature cited therein. IC50 denotes the concentration of the test compound in moles per liter which causes a 50% inhibition of lipid peroxidation.

LDL = experiment: Inhibition of Cu2+-catalyzed LDL oxidation in vitro; type: biochemical, porcine; settings: 5 μM Cu2+, 2 hours at 37° C.; for IC50: fluorescence 430 nm, read-out: IC50 (50% inhibition of LDL oxidation)
Description: 6) Inhibition of Cu^2+ -catalyzed LDL oxidation in vitro LDL was isolated from porcine plasma which contained EDTA (1 mg/ml) by ultracentrifugation in salt solutions of NaCl/NaBr between the densities 1.019 and 1.063 g/ml (cf. R. J. Havel et al., J. Clin. Invest. 43, 1345 (1955)). LDL was then dialyzed against phosphate-buffered saline (160 mM NaCl, 10 mM NaH2 PO4), pH 7.4 and stored under nitrogen at 4° C. Before the oxidation process, the LDL fractions were diluted to a final protein concentration of 0.1 mg/ml using phosphate-buffered saline and 2.5 ml aliquot parts were pre-incubated under nitrogen with the test compounds (25 μl of ethanolic solution) for 1 hour at 37° C. (cf. McLean et al., Biochemistry 1989, 28, 321). For the Cu^2+ -catalyzed oxidation of LDL, 12.5 μl of a 1 mM CuSO4 solution were added to each sample, a 5 μM Cu^2+ concentration resulting. The incubation was carried out for 2 hours at 37° C. and in an air atmosphere. The fluorescence intensity was measured at 430 nm (excitation wavelength 365 nm) (cf. Steinbrecher, U. P., J. Biol. Chem. 1987, 262, 3603). […] In addition, the inhibition using a 10^-5 N concentration of the test compound is indicated in %.

Row | Compound | IC50 (HEP G2 cells) [nM] | IC70 (HEP G2 cells) [nM] | Relative potency in % (HEP G2 cells) [%] | Relative potency in % (value in parentheses) (HEP G2 cells) [%] | onset of action / maximum action (serum total cholesterol; Table 4) | plasma cholesterol decrease compared with mevinolin and compound C (serum total cholesterol; Table 4, lower dosage) | Serum total cholesterol, % change compared to control group (serum total cholesterol; administration 3) [%] | Serum total cholesterol, % change compared to control group (serum total cholesterol; administration 10) [%] | Serum total cholesterol, % change compared to control group (serum total cholesterol; administration 14) [%] | Serum total cholesterol, % change compared to control group (serum total cholesterol; administration 17) [%] | Serum total cholesterol, % change compared to control group (serum total cholesterol; administration 20) [%] | Serum total cholesterol, % change compared to control group (serum total cholesterol; discharge phase 3) [%] | Serum total cholesterol, % change compared to control group (serum total cholesterol; discharge phase 6) [%] | Serum total cholesterol, % change compared to control group (serum total cholesterol; discharge phase 11) | IC50 (HMG-CoA reductase) [nM] | Inhibition at 10^-5 mol/l [1] [%] | IC50 (LDL) [nM] | Inhibition at 10^-5 M (LDL; 10^-5 M) [%] | IC50 [1] [nM]
1 | CC(C)c1cc(Sc2ccc(F)cc2)cc(-c2ccc(F)cc2)c1OC[C@@H](O)C[C@@H](O)CC(=O)O [Example 1] | 4.3 | ~0.8 | 1163 | 18750 | commences very early on. The maximum action was virtually achieved even in the first measurement after 3 days of treatment | substantially greater plasma cholesterol decrease than mevinolin or the compound C in spite of lower dosage | -44 | -46 | -43 | -42 | -48 | -22 | -17 | -6% | 6 | < 10 | > 10000 | 41 | –
2 | CC(C)c1c(O)c(C(C)C)c(C(C)C)c(OC[C@@H](O)C[C@@H](O)CC(=O)O)c1-c1ccc(F)cc1 [Example 8] | 4 | – | 1250 | – | – | – | – | – | – | – | – | – | – | – | 2 | 27 | 1100 | – | –
3 | CC(C)c1c(OC[C@@H](O)C[C@@H](O)CC(=O)O)c(C(C)C)c(C(C)C)c(O)c1-c1ccc(F)cc1 [Example 9] | 7.5 | 12 | 667 | 1250 | – | – | -8 | -12 | -15 | – | – | -4 | -4 | +6% | 4 | < 10 | 6000 | – | –
4 | CC(C)c1cc(Sc2ccc(F)cc2)cc(-c2ccc(F)cc2)c1O [Process Example 6, 2-(p-Fluorophenyl)-4-(p-fluorophenylthio)-6-isopropylphenol] | – | – | – | – | – | – | – | – | – | – | – | – | – | – | – | 95 | 1000 | – | 3000
5 | CC(=O)Oc1c(C(C)C)c(-c2ccc(F)cc2)c(O)c(C(C)C)c1C(C)C [Process Example 25, 2,3,5-Triisopropyl-4-acetoxy-6-(p-fluorophenyl)phenol] | – | – | – | – | – | – | – | – | – | – | – | – | – | – | – | 83 | 150 | – | 4800
